These are literature values, as cited in patent publication US12649952B2, “NTRK fusion molecules and uses thereof” (Foundation Medicine, Inc., priority 2019, dated 2026).

SMILES strings stand for the structures. Read-outs that look alike come from different tables or passages of the source.

Series [1] concerns solid tumors with NTRK fusions. To be noted: monotherapy; adult and pediatric patients, with and without CNS metastases.
In series [2] the test system is NTRK fusion-positive AML cell lines.
For series [3], the system named is Ntrk1/Hsp90. The conditions noted are these: results in degradation and depletion of Ntrk1.
Series [4] deals with myeloid leukemia cells.
The subject of series [5] is Ntrk1/Hsp90.
The test system of series [6] is myeloid leukemia cells. The source holds these as a separate data set.
The next series has as its target TrkA (Homo sapiens, UniProt P04629). The conditions noted are these: for inhibition of Ntrk1 / NTRK1: result in words.
In series [7] the test system is preclinical tumor models including a xenograft model of lung cancer. The conditions noted are these: in vivo.
For series [8], the system named is solid tumors. The conditions noted are these: Phase 1, 56 solid tumor patients.
Another series relates to neuroblastoma xenograft. To be noted: in vivo.
The subject of the next series is preclinical models. The conditions noted are these: variety of preclinical models.
The test system of series [9] is NTRK1 fusion-positive tumors. The conditions noted are these: human, in vivo.
The test system of the next series is tumor xenograft models. To be noted: variety of preclinical tumor xenograft models.
The test system of series [10] is lung adenocarcinoma with KRAS mutation. To be noted: mouse, in vivo.
For series [11], the system named is solid tumors. To be noted: Phase 1, solid tumors.
The next series has as its system neuroblastoma. The conditions noted are these: human, in vivo.
The target of a further series is NGF dimer (Homo sapiens, UniProt P01138). To be noted: read-out: KD for binding the NGF dimer.
In series [12] the test system is lung adenocarcinoma cell line.
Series [13] relates to NTRK fusion-positive cancers.
The next series has as its system NTRK gene fusions. To be noted: after further follow-up, expanded patient population (n=159).

Chain of TrkA (P04629 33-796): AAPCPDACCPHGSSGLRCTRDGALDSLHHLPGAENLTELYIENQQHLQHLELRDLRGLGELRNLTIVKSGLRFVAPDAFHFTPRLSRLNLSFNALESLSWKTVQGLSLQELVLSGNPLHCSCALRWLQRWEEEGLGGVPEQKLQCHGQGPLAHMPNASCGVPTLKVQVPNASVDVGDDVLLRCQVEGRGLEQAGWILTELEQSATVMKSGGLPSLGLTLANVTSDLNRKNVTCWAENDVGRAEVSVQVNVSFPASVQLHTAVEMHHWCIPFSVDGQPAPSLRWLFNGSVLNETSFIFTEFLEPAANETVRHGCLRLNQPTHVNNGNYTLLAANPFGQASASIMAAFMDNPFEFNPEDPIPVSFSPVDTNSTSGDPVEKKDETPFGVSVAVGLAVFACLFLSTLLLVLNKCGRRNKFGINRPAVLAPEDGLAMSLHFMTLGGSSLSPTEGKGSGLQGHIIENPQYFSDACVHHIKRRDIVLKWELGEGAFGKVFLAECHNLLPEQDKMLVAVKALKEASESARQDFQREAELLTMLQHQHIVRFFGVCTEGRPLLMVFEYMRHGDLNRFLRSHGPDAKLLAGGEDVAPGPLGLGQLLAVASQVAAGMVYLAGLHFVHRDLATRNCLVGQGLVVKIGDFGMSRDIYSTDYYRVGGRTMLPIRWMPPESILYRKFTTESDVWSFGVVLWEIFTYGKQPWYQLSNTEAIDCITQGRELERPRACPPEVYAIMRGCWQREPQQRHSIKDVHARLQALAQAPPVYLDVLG
Chain of NGF dimer (P01138 122-241): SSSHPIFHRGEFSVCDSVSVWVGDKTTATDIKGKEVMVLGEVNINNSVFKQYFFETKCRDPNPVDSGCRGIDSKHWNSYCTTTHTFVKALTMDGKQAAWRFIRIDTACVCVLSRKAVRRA

On to `CN1CCN(c2ccc(C(=O)Nc3n[nH]c4ccc(Cc5cc(F)cc(F)c5)cc34)c(NC3CCOCC3)c2)CC1` [entrectinib, N-[5-(3,5-Difluorobenzyl)-1H-indazol-3-yl]-4-(4-methyl-1-piperazinyl)-2-(tetrahydro-2H-pyran-4-ylamino)benzamide], for which the clinical benefit entry in series [1] was “Clinical benefit”. Moreover, the “sensitivity of cell lines” value in series [2] is listed as “preclinical sensitivity”.
In the case of `CO[C@H]1/C=C\C=C(/C)C(=O)NC2=CC(=O)C(NCCN(C)C)=C(C[C@@H](C)C[C@H](OC)[C@H](O)[C@@H](C)/C=C(\C)[C@@H]1OC(N)=O)C2=O` [17-DMAG], the Ntrk1/Hsp90 binding result with Ntrk1/Hsp90 [3] and in the series on Ntrk1/Hsp90 [5] was “disrupted Ntrk1/Hsp90 binding” throughout. Besides, the “growth of myeloid leukemia cells” value in the series with myeloid leukemia cells [4] and in the series on myeloid leukemia cells [6] was “reduced the growth of myeloid leukemia cells” throughout. Also, in the series with Ntrk1/Hsp90 [5] (consequence of disrupted Ntrk1/Hsp90 binding), the Ntrk1 level entry was “degradation and depletion of Ntrk1”.
Take `Nc1ncc(-c2cnn(C3CCNCC3)c2)cc1-c1nc2ccccc2o1` [KRC-108]: at TrkA, the “inhibition of Ntrk1 / NTRK1” value is listed as “inhibit NTRK1”. The antiproliferative activity entry in series [7] is “antiproliferative activity”.
On to `CO[C@@H](C(=O)N1Cc2n[nH]c(NC(=O)c3ccc(N4CCN(C)CC4)cc3)c2C1)c1ccccc1` [danusertib], for which the “inhibition of Ntrk1 / NTRK1” value on TrkA is recorded as “inhibit Ntrk1”. In the series with solid tumors [8], the objective response result is given as “objective response in one non-small cell lung cancer patient” and the tumor regression result is on record as “tumor regression in an ovarian cancer patient”.
As for `CC(C)Oc1cc(Nc2nc(N[C@@H](C)c3ccc(F)cn3)ncc2Cl)n[nH]1` [AZ-23, 5-chloro-N-[(1S)-1-(5-fluoropyridin-2-yl)ethyl]-N′-(5-propan-2-yloxy-1H-pyrazol-3-yl)pyrimidine-2,4-diamine], the tumor growth entry in the series with neuroblastoma xenograft was “inhibit tumor growth”.
Turning to `CO[C@]1(COC(=O)CCNC(=O)[C@@H](N)CCCCN)C[C@H]2O[C@]1(C)n1c3ccccc3c3c4c(c5c6ccccc6n2c5c31)C(=O)NC4` [CEP-2563], in the series with preclinical models, the anti-tumor activity result is recorded as “anti-tumor activity”.
As for `C[C@@H](Oc1cc(-c2cnn(C3CCNCC3)c2)cnc1N)c1c(Cl)ccc(F)c1Cl` [crizotinib], the clinical responses entry in series [9] was “Durable clinical responses”.
Take `CNC(=O)c1nn(C)c2c1C(C)(C)Cc1cnc(Nc3ccc(N4CCN(C)CC4)cc3)nc1-2` [PHA-848125]: in the series on tumor xenograft models, the anti-tumor effect entry is listed as “anti-tumor effect”. Besides, the tumor growth result in series [10] is listed as “inhibit tumor growth”. Further, in the series on solid tumors [11], the partial response is reported as 2/14 and the stable disease was 9/28.
Take `C[C@]12O[C@H](C[C@]1(O)CO)n1c3ccccc3c3c4c(c5c6ccccc6n2c5c31)CNC4=O` [lestaurtinib, (5S,6S,8R)-6-hydroxy-6-(hydroxymethyl)-5-methyl-7,8,14,15-tetrahydro-5H-16-oxa-4b,8a,14-triaza-5,8-methanodibenzo[b,h]cycloocta[jkl]cyclopenta[e]-as-indacen-13(6H)-one]: the tumor growth result in the series on neuroblastoma xenograft is “inhibit tumor growth”. For the same compound, the “efficacy in clinical trials” value in the series with neuroblastoma is reported as “effective”.
For the compound `Cc1cc2nc3c(=O)[nH]c(=O)nc-3n(C)c2cc1C=O` [Ro 08-2750], the Kd at NGF dimer was approximately 1000 nM.
As for `COC(=O)[C@@]1(O)C[C@H]2O[C@]1(C)n1c3ccccc3c3c4c(c5c6ccccc6n2c5c31)C(=O)NC4` [K252a, (9S-(9a, 108,12a))-2,3,9,10,11,12-hexahydro-10-hydroxy-10-(methoxycarbonyl)-9-methyl-9,12-epoxy-1H-diindolo [1,2,3-fg: 3′,2′,1′-kl] pyrrolo [3,4-i][1,6] benzodiazocin-1-one], in series [12], the “activation of the anti-apoptotic protein Akt” value was “block activation”, the cell death entry is listed as “promote cell death” and the tumor cell growth entry is listed as “reduce tumor cell growth”.
With `C[C@@H]1CCc2ncc(F)cc2[C@H]2CCCN2c2ccn3ncc(c3n2)C(=O)N1` [LOXO-195], the “confirmed complete or partial response” value in series [13] (10 of 29 evaluable patients, RECIST 1.1, NTRK fusions resistant to other TRK-targeted therapeutics) was 34%. Moreover, the safety and tolerability entry in series [13] (solid tumor cancer patients with NTRK fusions resistant to other TRK-targeted therapeutics) is “safe, tolerable”.
On to `NC(=O)Nc1snc(S[C@@H]2CCCCc3ccccc32)c1C(N)=O` [isothiazole 5n], for which the concentration for half-maximal inhibition (IC50) on TrkA is less than 1 nM.
Consider `O=C(Nc1cnn2ccc(N3CCC[C@@H]3c3cc(F)ccc3F)nc12)N1CC[C@H](O)C1` [Larotrectinib, larotrectinib], for which, in the series on NTRK gene fusions, the “median duration of response” value is 35.2 (22.7—not evaluable [NE]) months and the overall response rate is reported as 79%. In addition, in the series on NTRK fusion cancers (NTRK fusion cancers, current clinical trials), the “overall response rate (ORR)” value was 75%. The “responses ongoing, share of patients” value in the series with NTRK fusion cancers (at 12 months of treatment) was 75-81%. For the same compound, in the series with NTRK fusion cancers (combined Phase 1, Phase 1/2 and Phase 2 data), the “CR observed, share of patients” value is on record as 17%. Moreover, the ORR with NTRK fusion cancers (combined Phase 1, Phase 1/2 and Phase 2 data, adult and pediatric patients, various solid tumors harboring NTRK fusions (88/109)) is 81%. For the same compound, the intracranial efficacy result in the series with NTRK fusion cancers (individuals with NTRK fusion-positive gliomas or brain metastases) was “demonstrated”.

As usually defined, the Kd is a measure of binding affinity in units of concentration. The IC50 is the concentration that gives 50% inhibition.
